Inhibition and IC50 data for two compounds are collected here from patent publication US20260008760A1, “DIPEPTIDYL PEPTIDASE 1 INHIBITORS AND USES THEREOF” (Insmed Incorporated, priority 2024, published 2026).

Assay [1] concerns the target human DPP1 enzyme (Homo sapiens, UniProt P53634). The assay can be described thus: Human DPP1 Enzyme Single-Point Percent Inhibition Testing (HL-60 lysate). The class given is biochemical. Details: A crude lysate of HL-60 cells (ATCC; Manassas, VA) was used as a source of human DPP1 enzyme; host or cells: HL-60 cells (crude lysate). The following applies: final compound concentration of 10 nM, 400 μM H-Gly-Arg-AMC, n = 1. Put shortly: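 Enzyme source was HL-60 cell lysate in MES pH 6.0 buffer with NaCl and DTT, pre-incubated 10 min at 37° C with 10 nM compound (final, 1% DMSO). Cleavage of 400 μM H-Gly-Arg-AMC was followed at 350/450 nm over 90 min at 37° C, and percent inhibition was taken against vehicle wells.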

The target in assay [2] is T1, active mouse DPP1 enzyme (Mus musculus, UniProt P97821).
T1 construct: Each subunit is composed of an N-terminal fragment, a heavy chain and a light chain; purchased R&D Systems
The experiment in a line: Mouse DPP1 Enzyme IC50 Assay. The following applies: active mouse DPP1 enzyme, H-Gly-Arg-AMC substrate, 10 minutes pre-incubation at 37° C., pH 5.5; average of n runs; read-out: Avg. IC50 (Mouse DPP1 enzyme IC50 value ranges). The class given is biochemical. The method, then:
Example 96: Mouse DPP1 Enzyme IC50 Assay
Test articles were applied to active mouse DPP1 enzyme (R&D Systems; Minneapolis, MN) in Assay Buffer (50 mM MES pH 5.5, 50 mM NaCl, 5 mM DTT) in a total reaction volume of 125 μL. 25 μL of compound in Assay Buffer plus […] was first added to 50 μL of active mouse DPP1 enzyme at a concentration of 62.5 pg/μL and allowed to pre-incubate for 10 minutes at 37° C. after which 50 μL of […] H-Gly-Arg-AMC substrate (Bachem; St. Torrance, CA) was added, giving final substrate concentration of 400 µM and a final DMSO concentration of […]. Substrate cleavage was measured for 90 minutes at 37° C., with fluorescence at Excitation/Emission 350/450 nm measured every 5 minutes. DPP1 concentration was interpolated based on its activity relative to a standard curve of recombinant active mouse DPP enzyme. IC50 values for each compound were calculated via the XLFit (IDBS Version 5.3.1.3) Add-On to Microsoft Excel using the four parameter fit equation y=(A+((B−A)/(1+((C/x)^D)))), which appears as equation number 205 (4 Parameter Logistic Model or Sigmoidal Dose-Response Model) in XLFit. Default constraints were used for each Parameter. IC50 was defined as the compound concentration at which 50% of enzyme activity was inhibited when compared to the no-compound control.
In Table 2, *** represent average IC50≤5 nM, ** represents average IC50 in the range of 5-20 nM, and * represents average IC50 in the range of ≥20 nM, where the designations were made solely based on the average value without taking into account of the standard deviations.

T1 sequence (P97821 25-134 limits assumed): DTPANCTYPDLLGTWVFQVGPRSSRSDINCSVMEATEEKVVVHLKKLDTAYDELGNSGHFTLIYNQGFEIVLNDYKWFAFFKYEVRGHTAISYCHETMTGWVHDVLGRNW
T1 sequence (P97821 231-393 limits assumed): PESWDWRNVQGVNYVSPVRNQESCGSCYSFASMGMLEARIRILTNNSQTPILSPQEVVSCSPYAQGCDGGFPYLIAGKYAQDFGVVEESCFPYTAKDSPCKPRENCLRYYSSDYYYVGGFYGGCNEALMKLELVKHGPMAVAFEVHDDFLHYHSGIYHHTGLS
T1 sequence (P97821 394-462 limits assumed): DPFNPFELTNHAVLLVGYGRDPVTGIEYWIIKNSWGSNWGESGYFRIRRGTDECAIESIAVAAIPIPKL
Chain of human DPP1 enzyme (P53634 25-463): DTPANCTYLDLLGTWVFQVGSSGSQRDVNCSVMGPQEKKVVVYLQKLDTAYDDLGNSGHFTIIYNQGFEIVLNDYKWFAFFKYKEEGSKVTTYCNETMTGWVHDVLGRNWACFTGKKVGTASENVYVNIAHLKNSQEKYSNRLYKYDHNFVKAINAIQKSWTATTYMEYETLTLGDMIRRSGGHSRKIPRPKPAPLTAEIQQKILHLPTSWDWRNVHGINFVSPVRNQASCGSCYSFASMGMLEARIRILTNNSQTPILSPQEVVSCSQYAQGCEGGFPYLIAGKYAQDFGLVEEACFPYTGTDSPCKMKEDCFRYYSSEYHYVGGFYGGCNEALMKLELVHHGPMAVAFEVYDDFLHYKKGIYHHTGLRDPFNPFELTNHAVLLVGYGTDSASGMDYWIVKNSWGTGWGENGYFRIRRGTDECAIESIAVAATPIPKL

A word on the inhibition: it is the relative decrease from the control value, in per cent. The IC50 is the midpoint of a concentration-inhibition curve. In assay [1], `CN1CCCC2(C1)C(=O)N(C)c1ccc(-c3ccc(C[C@@H](C#N)NC(=O)[C@@H]4CNCCCO4)cc3)cc12` (stereo partly drawn) [Compound 18, (2S)—N-[(1S)-1-cyano-2-(4-{1,1′-dimethyl-2-oxospiro[indole-3,3′-piperidin]-5-yl}phenyl)ethyl]-1,4-oxazepane-2-carboxamide] showed an inhibition at 0.01 µM of at most 40%. Besides, in assay [2], the IC50 was over 20 nM.
For `N#C[C@H](Cc1ccc(-c2cnc3c(n2)CCCC3)cc1)NC(=O)[C@@H]1CNCCCO1` [Compound A11, (2S)—N-[(1S)-1-cyano-2-[4-(5,6,7,8-tetrahydroquinoxalin-2-yl)phenyl]ethyl]-1,4-oxazepane-2-carboxamide], in that order: at most 40% and over 20 nM.
